Values of other authors as cited in patent publication US20080261897A1, “Formulation Containing a Polyphenol-Containing Composition and Isomaltulose” (priority 2005, published 2008).

O=C(CO)[C@@H](O)[C@H](O)[C@H](O)CO[C@H]1O[C@H](CO)[C@@H](O)[C@H](O)[C@H]1O [isomaltulose, 6-O-α-D-glucopyranosylfructose]
solubility of isomaltulose in water: 0.49 g of anhydrous isomaltulose per g of water
